Where two headings read alike, the source gives them in different places.
What was measured:
DHL-10 = assay: Cell Titer Glo viability assay, DHL-10, alone or with compound of Formula I (Example 3)
Method: All procedures were performed at Gilead Sciences, Inc. in Branford, Conn. […] Compound plates were diluted 1:100 in RPMI without serum or additives but containing either 1% DMSO or 3 μM of the compound of Formula I creating a 10× stock. The DLBCL cell line, DHL-10 was plated at 10,000 cells per well in RPMI supplemented with 10% FBS and 100 U/L penicillin-streptomycin. To each well containing cells, 11 μl of 10× compound mixture in serum-free media was added in a final concentration of 0.2% DMSO and cells were incubated at 37° C. in 5% CO2 for 72 hours. Cell viability was assessed using Cell Titer Glo (CTG, Promega, Madison, Wis.) following the manufacturer's protocol on an Envision plate reader (Perkin Elmer, Waltham, Mass.). CTG signals were recorded for individual compound treatments and combinations. EC50 values were determined using a four parameter variable slope model with GraphPad Prism 6.0 software.

[1] = cited from earlier work

For `CC[C@]1(O)C[C@H]2CN(CCc3c([nH]c4ccccc34)[C@@](C(=O)OC)(c3cc4c(cc3OC)N(C=O)[C@H]3[C@@](O)(C(=O)OC)[C@H](OC(C)=O)[C@]5(CC)C=CCN6CC[C@]43[C@@H]65)C2)C1` [Vincristine, vincristine], the EC50 (DHL-10; Homo sapiens, 72 h, read-out: Inhibition of cell viability EC50, No Compound of Formula I) is listed as 14.1 nM, the EC50 (DHL-10; read-out: Inhibition of cell viability EC50, +300 nM Compound of Formula I, DHL-10, in combination with 300 nM compound of Formula I, 72 hours) is listed as 3.5 nM and the solubility ([1]; 95% ethanol) is listed as “only slightly soluble”. For the same compound, the solubility ([1]; methanol) was “soluble” and the solubility ([1]; water) was “freely soluble”.

From patent US10080756B2, “Combination methods for treating cancers” (Gilead Sciences, Inc., priority 2014, dated 2018)
